Measured values taken from ChEMBL document CHEMBL1149960, “Synthesis, insecticidal and anti-acetylcholinesterase activity of a new class of heterocyclic methanesulfonates” (Bioorg Med Chem Lett, 1996).
≈ marks a conversion by molar mass, not a printed value.

Assays:
[1] = test system: Diabrotica undecimpunctata; assay: whole plant or invertebrate; settings: in Zea mays, read-out: LD50
Description: Insecticidal activity against southern Corn rootworm (SCRW)

[2] = molecular target: T1, Acetylcholinesterase (Bos taurus, UniProt P23795)
T1 sequence (P23795 whole entry): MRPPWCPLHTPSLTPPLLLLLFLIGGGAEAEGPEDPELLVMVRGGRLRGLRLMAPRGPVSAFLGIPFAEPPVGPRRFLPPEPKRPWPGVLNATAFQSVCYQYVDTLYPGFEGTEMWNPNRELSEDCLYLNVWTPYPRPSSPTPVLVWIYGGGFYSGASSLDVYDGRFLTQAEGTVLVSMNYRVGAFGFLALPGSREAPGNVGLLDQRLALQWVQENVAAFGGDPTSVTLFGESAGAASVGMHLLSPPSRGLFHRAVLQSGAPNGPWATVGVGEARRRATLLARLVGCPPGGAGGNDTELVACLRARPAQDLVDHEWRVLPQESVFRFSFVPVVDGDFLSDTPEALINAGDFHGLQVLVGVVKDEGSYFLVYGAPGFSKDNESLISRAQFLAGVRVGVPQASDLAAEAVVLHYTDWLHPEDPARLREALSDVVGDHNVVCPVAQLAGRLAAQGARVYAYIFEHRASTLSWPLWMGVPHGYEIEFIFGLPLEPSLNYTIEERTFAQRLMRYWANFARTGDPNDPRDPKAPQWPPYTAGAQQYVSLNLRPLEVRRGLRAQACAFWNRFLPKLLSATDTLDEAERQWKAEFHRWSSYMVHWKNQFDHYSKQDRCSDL
Description: Inhibition of bovine erythrocyte acetylcholinesterase (AChE)

[3] = test system: Lucilia cuprina; assay: whole plant or invertebrate
Description: Insecticidal activity against blowfly Lucilia cuprina

Structure (SMILES): CC1(C)CC(OS(C)(=O)=O)=NN1C(=O)Nc1ccccc1
- LC50 [1]: > 1000 µg/mL
- IC50 [2]: > 1000 µM
- LD50 [3]: > 100 mg/kg

Structure (SMILES): CC(C)NC(=O)N1N=C(OS(C)(=O)=O)CC1C (stereo unspecified)
- LC50 [1]: < 0.5 µg/mL
- IC50 [2]: 28.6 µM
- LD50 [3]: 21 mg/kg

Structure (SMILES): CC(C)NS(=O)(=O)N1N=C(OS(C)(=O)=O)CC1c1ccccc1 (stereo unspecified)
- LC50 [1]: > 1000 µg/mL
- IC50 [2]: > 1000 µM
- LD50 [3]: > 100 mg/kg

Structure (SMILES): CC1(C)CC(OS(C)(=O)=O)=NN1C(=O)NC1CCCCC1
- LC50 [1]: > 1000 µg/mL
- IC50 [2]: 284 µM
- LD50 [3]: 2.64 mg/kg

Structure (SMILES): CC(C)NS(=O)(=O)N1N=C(OS(C)(=O)=O)CC1(C)C
- LC50 [1]: 60 µg/mL (≈ 191 µM)
- IC50 [2]: 1270 µM
- LD50 [3]: 37 mg/kg

Structure (SMILES): CC1(C)CC(OS(C)(=O)=O)=NN1S(C)(=O)=O
- LC50 [1]: > 1000 µg/mL
- IC50 [2]: > 1000 µM
- LD50 [3]: > 1000 mg/kg

Structure (SMILES): CC(C)C(=O)N1N=C(OS(C)(=O)=O)CC1(C)C
- LC50 [1]: 120 µg/mL (≈ 457 µM)
- IC50 [2]: > 1000 µM
- LD50 [3]: > 100 mg/kg

Structure (SMILES): CCCS(=O)(=O)N1N=C(OS(C)(=O)=O)CC1c1ccccc1 (stereo unspecified)
- LC50 [1]: > 1000 µg/mL
- IC50 [2]: 62.5 µM
- LD50 [3]: > 100 mg/kg

Structure (SMILES): CC(C)(C)NC(=O)N1N=C(OS(C)(=O)=O)CC1(C)C
- LC50 [1]: 12 µg/mL (≈ 41.2 µM)
- IC50 [2]: > 1000 µM
- LD50 [3]: 75.9 mg/kg

Structure (SMILES): CCOC(=O)N1N=C(OS(C)(=O)=O)CC1(C)C
- LC50 [1]: > 1000 µg/mL
- IC50 [2]: > 1000 µM
- LD50 [3]: > 100 mg/kg

Structure (SMILES): CC1(C)CC(OS(C)(=O)=O)=NN1C(N)=O
- LC50 [1]: > 1000 µg/mL
- IC50 [2]: > 1000 µM
- LD50 [3]: > 1000 mg/kg

Structure (SMILES): CN(C)S(=O)(=O)N1N=C(OS(C)(=O)=O)CC1c1ccccc1 (stereo unspecified)
- LC50 [1]: > 1000 µg/mL
- IC50 [2]: > 1000 µM
- LD50 [3]: > 100 mg/kg

Structure (SMILES): CC(C)NC(=O)N1N=C(OS(C)(=O)=O)CC1C(C)C (stereo unspecified)
- LC50 [1]: 5 µg/mL (≈ 17.2 µM)
- IC50 [2]: 602 µM
- LD50 [3]: 25.1 mg/kg

Structure (SMILES): CC(C)CS(=O)(=O)c1cccc(OS(C)(=O)=O)n1
- LC50 [1]: < 0.5 µg/mL
- IC50 [2]: 60.5 µM
- LD50 [3]: > 100 mg/kg

Structure (SMILES): CC(C)NC(=O)N1N=C(OS(C)(=O)=O)CC1c1ccccc1 (stereo unspecified)
- LC50 [1]: < 0.5 µg/mL
- IC50 [2]: 40.6 µM
- LD50 [3]: 34.4 mg/kg

Structure (SMILES): CCCNS(=O)(=O)N1N=C(OS(C)(=O)=O)CC1(C)C
- LC50 [1]: 55 µg/mL (≈ 175 µM)
- IC50 [2]: > 1000 µM
- LD50 [3]: 40.9 mg/kg

Structure (SMILES): C=CCNC(=O)N1N=C(OS(C)(=O)=O)CC1(C)C
- LC50 [1]: 1.6 µg/mL (≈ 5.81 µM)
- IC50 [2]: 149 µM
- LD50 [3]: 6.84 mg/kg

Structure (SMILES): CC(C)NC(=O)N1N=C(OS(C)(=O)=O)CC1(C)C
- LC50 [1]: 1 µg/mL (≈ 3.61 µM)
- IC50 [2]: 714 µM
- LD50 [3]: 7.14 mg/kg

Structure (SMILES): COP(=O)(OC)C(O)C(Cl)(Cl)Cl (stereo unspecified) [TRICHLORFON]
- IC50 [2]: > 1000 µM
- LD50 [3]: 21.8 mg/kg
